Assay results as given in US12215112B2, “CD151 inhibitors” (ESFAM BIOTECH PTY LTD, priority 2020, dated 2025).

What follows are molecules tested on PC3 cells (assay: xCELLigence RTCA real-time cell invasion assay (CIM plate, Matrigel) on PC3 prostate cancer cells). Conditions: Homo sapiens, PC-3, compound 25 uM to 1 uM, cell index monitored for 72 hours, four-parameter dose-response curve, read-out: IC50, Effect of compounds on the invention on prostate cancer cells.
Assay type: cell-based
Protocol: The media antibiotics and serum were purchased from Invitrogen (Life Technologies). PC3 cells were purchased from ATCC (Granville, NSW, Australia). PC3 cells were expanded in cell culture T75 flasks with vented cap and then preserved in low passage number. The medium used for PC3 cells was RPMI (GlutaMAX) supplemented with 10% FCS and 1% penicillin/streptomycin (culture media). The cells were maintained at 37° C. in a humidified 95% (v/v) air/5% (v/v) CO2 environment and were grown up to 80% confluence.
XCELLigence® real-time cell analysis (RTCA) instrument (ACEA Biosciences), 16-well ACEA CIM-Plates, 16-well ACEA E-Plat and assembly tool were purchased from ELITechGroup empowering IVD (Braeside, Australia). The Matrigel was purchased from Corning (Australia).
To measure cell invasion under compound treatment the upper chamber of the CIM plate was coated with 5% Matrigel diluted in SF RPMI (20 μl) and incubated in a 37° C. tissue culture incubator for four hours. Using the assembly tool to support the chambers the lower chamber was filled with (160 μl) of culture media containing the compound in specific concertation from 25 uM to 1 uM and two controls (DMSO 0.1% and ESFAM 4C 10 uM) (see the schematic in FIG. 1). Once the upper chamber was placed on the top of the lower chamber it was loaded with (40 μl) serum-free (SF) RPMI containing the compound as previously stated. After one hour calibration in 37° C., plates were placed into the xCELLigence station, and the base-line electric impedance was measured to confirm that all wells and connections were working properly. In case of connection problem, the software automatically informs the researcher about the nature of the problem in the message section. Subsequently cells were trypsinized and upon harvesting and counting they were diluted in SF RPMI to desired density (3×10^4) and seeded (100 μl) in the wells. After 30 minutes of incubation in room-temperature to allow cell attachment the plates were loaded in the xCELLigence RTCA DP machine. The cell invasion was monitored in real-time for the duration of 72 hours. […]
The xCELLigence system automatically monitored the electrical impedance value of each well and expressed as a cell index (CI) value for the duration of 72 hours. The data for treatments was automatically grouped as the mean±standard deviation. The software version used in these experiments is 1.2.1. The electronic record of the experimental data is automatically saved in file that cannot be altered or changed by the researcher.
Statistical analysis was performed using Microsoft® Office EXCEL and GraphPad Prism 7. The IC50 was calculated from the four-parameter dose-response curve (log(inhibitor) vs. response-variable slopes). Where the row-data was inserted in GraphPad Prism 7 (Dose response x-log(dose)) and analysed for XY nonlinear regression (curve fit), dose response-inhibition, log(inhibitor) vs response variable slope (four parameters). For the IC90 calculation the log(IC50)=log(IC90)-(1/HillSlope)*log(9) equation was used in EXCEL based on the raw data extracted from xCELLigence system and the dose-response curve.

IC50 [µM] | SMILES
11 | COc1cccc(NC(=O)c2nn3c(-c4cn[nH]c4)cc(N4Cc5ccc(F)cc5C4)nc3c2C(C)C)c1 [Compound 77, 5-(5-fluoroisoindolin-2-yl)-3-isopropyl-N-(3-methoxyphenyl)-7-(1H-pyrazol-4-yl)pyrazolo[1,5-a]pyrimidine-2-carboxamide]
1.96 | COc1cccc(NC(=O)c2cc3nc(N(C)[C@@H](C)c4ccccc4)cc(-c4cn[nH]c4)n3n2)c1 [Compound 14, (S)—N-(3-methoxyphenyl)-5-(methyl(1-phenylethyl)amino)-7-(1H-pyrazol-4-yl)pyrazolo[1,5-a]pyrimidine-2-carboxamide]
3.68 | COc1cccc(NC(=O)c2cc3nc(N4Cc5ccc(Cl)cc5C4)cc(-c4cn[nH]c4)n3n2)c1 [Compound 61, 5-(5-chloroisoindolin-2-yl)-N-(3-methoxyphenyl)-7-(1H-pyrazol-4-yl)pyrazolo[1,5-a]pyrimidine-2-carboxamide]
11.6 | CC(C)c1c(C(=O)Nc2cccc(OC(F)(F)F)c2)nn2c(-c3cn[nH]c3)cc(N(C)Cc3ccccc3)nc12 [Compound 76, 5-(benzyl(methyl)amino)-3-isopropyl-7-(1H-pyrazol-4-yl)-N-(3-(trifluoromethoxy)phenyl)pyrazolo[1,5-a]pyrimidine-2-carboxamide]
1.34 | CC(C)c1c(C(=O)Nc2cccc(O)c2)nn2c(-c3cn[nH]c3)cc(N(C)Cc3ccccc3)nc12 [Compound 74, 5-(benzyl(methyl)amino)-N-(3-hydroxyphenyl)-3-isopropyl-7-(1H-pyrazol-4-yl)pyrazolo[1,5-a]pyrimidine-2-carboxamide]
11.9 | CN(Cc1ccccc1)c1cc(-c2cn[nH]c2)n2nc(C(=O)NCc3ccccc3)cc2n1 [Compound 3, N-benzyl-5-(benzyl(methyl)amino)-7-(1H-pyrazol-4-yl)pyrazolo[1,5-a]pyrimidine-2-carboxamide]
6.18 | O=C(Nc1cccc(N2CCOCC2)c1)c1cc2nc(N3Cc4ccccc4C3)cc(-c3cn[nH]c3)n2n1 [Compound 47, 5-(isoindolin-2-yl)-N-(3-morpholinophenyl)-7-(1H-pyrazol-4-yl)pyrazolo[1,5-a]pyrimidine-2-carboxamide]
9.86 | CN(Cc1ccc(C(F)(F)F)cc1)c1cc(-c2cn[nH]c2)n2nc(C(=O)Nc3ccc(Cl)cc3)cc2n1 [Compound 41, N-(4-chlorophenyl)-5-(methyl(4-(trifluoromethyl)benzyl)amino)-7-(1H-pyrazol-4-yl)pyrazolo[1,5-a]pyrimidine-2-carboxamide]
10.1 | CC(=O)N1CCN(c2cccc(NC(=O)c3nn4c(-c5cn[nH]c5)cc(N5Cc6ccc(Cl)cc6C5)nc4c3C(C)C)c2)CC1 [Compound 83, N-(3-(4-acetylpiperazin-1-yl)phenyl)-5-(5-chloroisoindolin-2-yl)-3-isopropyl-7-(1H-pyrazol-4-yl)pyrazolo[1,5-a]pyrimidine-2-carboxamide]
19.7 | COc1cccc(NC(=O)c2nn3c(-c4cn[nH]c4)cc(N4Cc5ccccc5C4)nc3c2C)c1 [Compound 66, 5-(isoindolin-2-yl)-N-(3-methoxyphenyl)-3-methyl-7-(1H-pyrazol-4-yl)pyrazolo[1,5-a]pyrimidine-2-carboxamide]
8.46 | COc1cccc(CN(C)c2cc(-c3cn[nH]c3)n3nc(C(=O)Nc4ccc(Cl)cc4)cc3n2)c1 [Compound 39, N-(4-chlorophenyl)-5-((3-methoxybenzyl)(methyl)amino)-7-(1H-pyrazol-4-yl)pyrazolo[1,5-a]pyrimidine-2-carboxamide]
5.85 | CC(=O)N1CCN(c2cccc(NC(=O)c3cc4nc(N5Cc6ccccc6C5)cc(-c5cn[nH]c5)n4n3)c2)CC1 [Compound 49, N-(3-(4-acetylpiperazin-1-yl)phenyl)-5-(isoindolin-2-yl)-7-(1H-pyrazol-4-yl)pyrazolo[1,5-a]pyrimidine-2-carboxamide]
3.04 | CN(Cc1ccccc1)c1cc(-c2cn[nH]c2)n2nc(C(=O)Nc3ccc(C(F)(F)F)cc3)cc2n1 [Compound 32, 5-(benzyl(methyl)amino)-7-(1H-pyrazol-4-yl)-N-(4-(trifluoromethyl)phenyl)pyrazolo[1,5-a]pyrimidine-2-carboxamide]
3.15 | CC(C)c1c(C(=O)Nc2cccc(O)c2)nn2c(-c3cn[nH]c3)cc(N3Cc4ccccc4C3)nc12 [Compound 71, N-(3-hydroxyphenyl)-5-(isoindolin-2-yl)-3-isopropyl-7-(1H-pyrazol-4-yl)pyrazolo[1,5-a]pyrimidine-2-carboxamide]
12.8 | CN(Cc1ccccc1)c1cc(-c2cn[nH]c2)n2nc(C(=O)Nc3cccc(OC(F)F)c3)cc2n1 [Compound 19, 5-(benzyl(methyl)amino)-N-(3-(difluoromethoxy)phenyl)-7-(1H-pyrazol-4-yl)pyrazolo[1,5-a]pyrimidine-2-carboxamide]
7.95 | CC(C)Oc1cccc(NC(=O)c2cc3nc(N(C)Cc4ccccc4)cc(-c4cn[nH]c4)n3n2)c1 [Compound 18, 5-(benzyl(methyl)amino)-N-(3-isopropoxyphenyl)-7-(1H-pyrazol-4-yl)pyrazolo[1,5-a]pyrimidine-2-carboxamide]
2.45 | COc1cccc(NC(=O)c2nn3c(-c4cn[nH]c4)cc(N4Cc5ccc(Cl)cc5C4)nc3c2C(C)C)c1 [Compound 81, 5-(5-chloroisoindolin-2-yl)-3-isopropyl-N-(3-methoxyphenyl)-7-(1H-pyrazol-4-yl)pyrazolo[1,5-a]pyrimidine-2-carboxamide]
5.52 | COc1cc(Cl)cc(NC(=O)c2cc3nc(N4Cc5ccccc5C4)cc(-c4cn[nH]c4)n3n2)c1 [Compound 52, N-(3-chloro-5-methoxyphenyl)-5-(isoindolin-2-yl)-7-(1H-pyrazol-4-yl)pyrazolo[1,5-a]pyrimidine-2-carboxamide]
2.12 | CC(=O)N1CCN(c2cccc(NC(=O)c3nn4c(-c5cn[nH]c5)cc(N5Cc6ccccc6C5)nc4c3C3CC3)c2)CC1 [Compound 95, N-(3-(4-acetylpiperazin-1-yl)phenyl)-3-cyclopropyl-5-(isoindolin-2-yl)-7-(1H-pyrazol-4-yl)pyrazolo[1,5-a]pyrimidine-2-carboxamide]
1.65 | COc1ccc(NC(=O)c2cc3nc(N4Cc5ccccc5C4)cc(-c4cn[nH]c4)n3n2)cc1 [Compound 54, 5-(isoindolin-2-yl)-N-(4-methoxyphenyl)-7-(1H-pyrazol-4-yl)pyrazolo[1,5-a]pyrimidine-2-carboxamide]
2.03 | CC(C)Oc1cccc(NC(=O)c2cc3nc(N4Cc5ccccc5C4)cc(-c4cn[nH]c4)n3n2)c1 [Compound 28, 5-(isoindolin-2-yl)-N-(3-isopropoxyphenyl)-7-(1H-pyrazol-4-yl)pyrazolo[1,5-a]pyrimidine-2-carboxamide]
3.56 | CN(C)c1cccc(NC(=O)c2cc3nc(N(C)Cc4ccccc4)cc(-c4cn[nH]c4)n3n2)c1 [Compound 20, 5-(benzyl(methyl)amino)-N-(3-(dimethylamino)phenyl)-7-(1H-pyrazol-4-yl)pyrazolo[1,5-a]pyrimidine-2-carboxamide]

SMILES | IC50 [µM]
O=C(Nc1cccc(OC2CCC2)c1)c1cc2nc(N3Cc4ccccc4C3)cc(-c3cn[nH]c3)n2n1 [Compound 50, N-(3-cyclobutoxyphenyl)-5-(isoindolin-2-yl)-7-(1H-pyrazol-4-yl)pyrazolo[1,5-a]pyrimidine-2-carboxamide] | 1.46
